Patent US20230192704A1, “MONOCARBOXYLIC ACID TRANSPORTER 4 (MCT4) MODULATORS AND USES THEREOF” (Teon Therapeutics, Inc., priority 2020, published 2023)

Tests used:
MCT1 = target: T1, MCT1 (Homo sapiens, UniProt P53985); test: MCT1 transport assay (L-lactate influx, BCECF-AM intracellular pH); assay type: cell-based; conditions: BT-20 cells expressing exclusively MCT1
T1 construct: BT-20 cells—a triple negative human breast cancer cell line expressing exclusively MCT1 (confirmed by Western blotting); host or cells: BT-20
T1 sequence (P53985 1-500): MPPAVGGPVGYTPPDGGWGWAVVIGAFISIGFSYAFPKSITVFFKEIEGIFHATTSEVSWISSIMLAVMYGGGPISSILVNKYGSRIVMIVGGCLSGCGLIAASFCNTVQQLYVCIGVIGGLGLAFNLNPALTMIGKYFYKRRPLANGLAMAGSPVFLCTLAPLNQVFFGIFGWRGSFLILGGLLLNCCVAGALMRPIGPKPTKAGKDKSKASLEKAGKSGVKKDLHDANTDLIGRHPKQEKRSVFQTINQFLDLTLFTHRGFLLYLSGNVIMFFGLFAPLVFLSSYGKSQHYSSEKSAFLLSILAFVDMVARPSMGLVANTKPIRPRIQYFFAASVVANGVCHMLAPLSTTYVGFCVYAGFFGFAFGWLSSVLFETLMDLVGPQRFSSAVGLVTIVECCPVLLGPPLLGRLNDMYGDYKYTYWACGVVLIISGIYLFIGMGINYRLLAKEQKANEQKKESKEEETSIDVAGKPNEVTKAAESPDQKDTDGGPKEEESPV
T1 sequence (P35613 140-385 partner limits assumed): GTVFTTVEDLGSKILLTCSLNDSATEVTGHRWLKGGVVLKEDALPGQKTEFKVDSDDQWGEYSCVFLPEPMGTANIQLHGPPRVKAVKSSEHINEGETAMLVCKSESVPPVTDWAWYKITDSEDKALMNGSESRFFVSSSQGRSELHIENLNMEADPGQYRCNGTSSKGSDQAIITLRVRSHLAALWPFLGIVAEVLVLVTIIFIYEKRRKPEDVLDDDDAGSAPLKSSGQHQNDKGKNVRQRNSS
From the text: The following in vitro MCT4 and MCT1 transport assays were used to measure the effect of the compounds on L-lactate influx into two different cell lines: • a) MDA-MB-231 cells—a triple negative human breast cancer cell line expressing exclusively MCT4 (confirmed by Western blotting) was used for the MCT4 transport assay, • b) BT-20 cells—a triple negative human breast cancer cell line expressing exclusively MCT1 (confirmed by Western blotting) was used for the
(§1) The compounds' efficacy in both assays was determined by calculating their IC50 value (the concentration of test compound that inhibited 50% of biological activity).
(§2) MCT4 is predominantly involved in cellular efflux of lactate from the cell, preventing intracellular acidification. In the MCT4 in vitro transport system described here it was possible to drive influx of lactate in the cells and test the compounds efficacy in preventing this process. MCT1 is involved in influx-efflux of lactate, and because it is closely related to MCT4, it is a major selectivity target for MCT4 inhibitor. The MCT1 in vitro transport system described here measured the influx of lactate in the cells and ability of test compounds in preventing this process.
BT-20 (ATCC); Media: EMEM+10% FBS+1% PS
(§3) Tyrode's Solution pH7.4 (NaCl 119 mM; KC1 5 mM; HEPES pH7.4 25 mM; CaCl2 2 mM; MgCl2 2 mM; Glucose 6 g/L)
(§4) The following assay was performed to assess MCT4 (MDA-MB-231 cell line) or MCT1 (BT-20 cell line) activity by monitoring the intracellular pH change that accompanies lactate/proton transport using the pH-sensitive fluorescent dye BCECF-AM.
(§5) Compound preparation: The compounds were serially diluted in 100% DMSO 1:3 for 8 pts and transferred (500 nl) to a 96-well plate by Echo.
(§6) Cell preparation: Cells were briefly rinsed with 10 ml of PBS solution to remove all traces of serum, trypsinized (0.05% Trypsin-EDTA) at 25° C. for 2-3 minutes and washed twice with Tyrode's solution. The cell viability and concentration were determined using Vi-Cell. Cells were resuspended in Tyrode's solution.
(§7) Cells were loaded with the pH sensitive dye BCECF-AM (5 uM final concentration from the 30 mM DMSO stock solution) at 37° C. for 30 minutes before being washed twice to remove excess dye and resuspended to 2 million/ml cells in Tyrode's solution. Cells were seeded into a 96-well plate (200,000 cells/well) directly onto the test compound or a reference compound for 10 minutes at 37° C. Following incubation with test compounds, 25 ul of 30 mM Sodium-L-lactate was added. This addition was performed on the FlexStation III as a part of a real-time kinetic protocol. The ratio of cellular fluorescence at 535 nm after excitation at 490 nm/440 nm was measured over time for baseline (pre-lactate addition) and post-lactate addition for 60 sec with or without compounds present. Inhibitory concentration response curves were generated for compounds and their IC50 values calculated.

MCT4 = target: T2, MCT4 (Homo sapiens, UniProt O15427); test: MCT4 transport assay (L-lactate influx, BCECF-AM intracellular pH); assay type: cell-based; conditions: MDA-MB-231 cells expressing exclusively MCT4
T2 construct: MDA-MB-231 cells—a triple negative human breast cancer cell line expressing exclusively MCT4 (confirmed by Western blotting); host or cells: MDA-MB-231
T2 sequence (O15427 2-465 limits assumed): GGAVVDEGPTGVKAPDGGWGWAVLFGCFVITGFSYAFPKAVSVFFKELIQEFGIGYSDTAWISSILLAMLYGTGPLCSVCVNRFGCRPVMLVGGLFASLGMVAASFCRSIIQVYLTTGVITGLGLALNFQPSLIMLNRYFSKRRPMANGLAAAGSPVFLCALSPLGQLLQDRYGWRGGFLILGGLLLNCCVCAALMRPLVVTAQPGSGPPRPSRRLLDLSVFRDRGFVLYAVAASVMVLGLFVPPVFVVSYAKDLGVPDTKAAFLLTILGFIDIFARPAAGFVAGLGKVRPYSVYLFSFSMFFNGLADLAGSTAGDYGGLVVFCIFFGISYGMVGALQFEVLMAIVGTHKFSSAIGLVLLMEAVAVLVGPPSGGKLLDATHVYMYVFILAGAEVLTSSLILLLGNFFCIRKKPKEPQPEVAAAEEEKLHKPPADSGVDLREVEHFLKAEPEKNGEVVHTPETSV
Protocol: as §1, §2, §3, §4, §5, §6, §7

| Structure (SMILES) | IC50 (MCT1) | IC50 (MCT4) |
| --- | --- | --- |
| Cc1nc2nc(C)c(O[C@@H]3CCN(c4ccc(-c5ccc(C(=O)N6CC(C(N)=O)C6)nn5)cc4)C3)c(C)n2n1 [Compound 17, (R)-1-(6-(4-(3-((2,5,7-trimethyl-[1,2,4]triazolo[1,5-a]pyrimidin-6-yl)oxy)pyrrolidin-1-yl)phenyl)pyridazine-3-carbonyl)azetidine-3-carboxamide] | > 1 µM | 0.5 to 1 µM |
| Cc1nc2nc(C)c(O[C@@H]3CCN(c4cnc(C56CC(CN7CC8(COC8)C7)(C5)C6)nc4)C3)c(C)n2n1 [Compound 21, (R)-6-((3-(5-(3-((2,5,7-trimethyl-[1,2,4]triazolo[1,5-a]pyrimidin-6-yl)oxy)pyrrolidin-1-yl)pyrimidin-2-yl)bicyclo[1.1.1]pentan-1-yl)methyl)-2-oxa-6-azaspiro[3.3]heptane] | > 1 µM | 0.5 to 1 µM |
| Cc1nc2nc(C)c(O[C@@H]3CCN(c4ccc(-c5ccc(CN6CC(C(N)=O)C6)nn5)cc4)C3)c(C)n2n1 [Compound 11, (R)-1-((6-(4-(3-((2,5,7-trimethyl-[1,2,4]triazolo[1,5-a]pyrimidin-6-yl)oxy)pyrrolidin-1-yl)phenyl)pyridazin-3-yl)methyl)azetidine-3-carboxamide] | > 1 µM | 0.1 to 0.499 µM |
| Cc1nc2nc(C)c(O[C@@H]3CCN(c4ccc([C@H]5CC[C@H](C(=O)N6CCOCC6)CC5)cc4)C3)c(C)n2n1 [Compound 35, morpholino((1R,4r)-4-(4-((R)-3-((2,5,7-trimethyl-[1,2,4]triazolo[1,5-a]pyrimidin-6-yl)oxy)pyrrolidin-1-yl)phenyl)cyclohexyl)methanone] | > 1 µM | < 0.1 µM |
| Cc1nc2nc(C)c(O[C@@H]3CCN(c4ccc(-c5ccc(C(=O)N6CC7(COC7)C6)nn5)cc4)C3)c(C)n2n1 [Compound 13, (R)-(2-oxa-6-azaspiro[3.3]heptan-6-yl)(6-(4-(3-((2,5,7-trimethyl-[1,2,4]triazolo[1,5-a]pyrimidin-6-yl)oxy)pyrrolidin-1-yl)phenyl)pyridazin-3-yl)methanone] | > 1 µM | < 0.1 µM |
| Cc1nc2nc(C)c(O[C@@H]3CCN(c4cnc(C#CCN5CCOCC5)nc4)C3)c(C)n2n1 [Compound 5, (R)-4-(3-(5-(3-((2,5,7-trimethyl-[1,2,4]triazolo[1,5-a]pyrimidin-6-yl)oxy)pyrrolidin-1-yl)pyrimidin-2-yl)prop-2-yn-1-yl)morpholine] | > 1 µM | < 0.1 µM |
| Cc1nc2nc(C)c(O[C@@H]3CCN(c4ccc([C@H]5CC[C@H](C(=O)N6CC7(COC7)C6)CC5)cc4)C3)c(C)n2n1 [Compound 33, (2-oxa-6-azaspiro[3.3]heptan-6-yl)((1R,4r)-4-(4-((R)-3-((2,5,7-trimethyl-[1,2,4]triazolo[1,5-a]pyrimidin-6-yl)oxy)pyrrolidin-1-yl)phenyl)cyclohexyl)methanone] | > 1 µM | < 0.1 µM |
| COC1CN(CC23CC(c4ncc(N5CC[C@@H](Oc6c(C)nc7nc(C)nn7c6C)C5)cn4)(C2)C3)C1 [Compound 22, (R)-6-((1-(2-(3-((3-methoxyazetidin-1-yl)methyl)bicyclo[1.1.1]pentan-1-yl)pyrimidin-5-yl)pyrrolidin-3-yl)oxy)-2,5,7-trimethyl-[1,2,4]triazolo[1,5-a]pyrimidine] | > 1 µM | < 0.1 µM |
| Cc1nc2nc(C)c(O[C@@H]3CCN(c4ccc(-c5ccc(CN6CC(S(C)(=O)=O)C6)nn5)cc4)C3)c(C)n2n1 [Compound 10, (R)-2,5,7-trimethyl-6-((1-(4-(6-((3-(methylsulfonyl)azetidin-1-yl)methyl)pyridazin-3-yl)phenyl)pyrrolidin-3-yl)oxy)-[1,2,4]triazolo[1,5-a]pyrimidine] | > 1 µM | < 0.1 µM |

Second part, the compound after the results:

| IC50 (MCT1) | IC50 (MCT4) | Structure (SMILES) |
| --- | --- | --- |
| > 1 µM | < 0.1 µM | COC1CN(Cc2ccc(-c3ccc(N4CC[C@@H](Oc5c(C)nc6nc(C)nn6c5C)C4)cc3)nn2)C1 [Compound 8, (R)-6-((1-(4-(6-((3-methoxyazetidin-1-yl)methyl)pyridazin-3-yl)phenyl)pyrrolidin-3-yl)oxy)-2,5,7-trimethyl-[1,2,4]triazolo[1,5-a]pyrimidine] |
| > 1 µM | < 0.1 µM | Cc1cc2nc(C)c(O[C@@H]3CCN(c4ccc(-c5ccc(C(=O)N6CCOCC6)nn5)cc4)C3)c(C)n2n1 [Compound 20, (R)-morpholino(6-(4-(3-((2,5,7-trimethylpyrazolo[1,5-a]pyrimidin-6-yl)oxy)pyrrolidin-1-yl)phenyl)pyridazin-3-yl)methanone] |
| > 1 µM | 0.1 to 0.499 µM | Cc1cn2c(C)c(O[C@@H]3CCN(c4ccc(-c5ccc(CN6CCOCC6)nn5)cc4)C3)c(C)nc2n1 [Compound 2, (R)-4-((6-(4-(3-((2,5,7-trimethylimidazo[1,2-a]pyrimidin-6-yl)oxy)pyrrolidin-1-yl)phenyl)pyridazin-3-yl)methyl)morpholine] |
| > 1 µM | < 0.1 µM | Cc1nc2nc(C)c(O[C@@H]3CCN(c4ccc(-c5ccc(CN6CC(C(=O)N(C)C)C6)nn5)cc4)C3)c(C)n2n1 [Compound 12, (R)-N,N-dimethyl-1-((6-(4-(3-((2,5,7-trimethyl-[1,2,4]triazolo[1,5-a]pyrimidin-6-yl)oxy)pyrrolidin-1-yl)phenyl)pyridazin-3-yl)methyl)azetidine-3-carboxamide] |
| > 1 µM | 0.5 to 1 µM | COC1CN(C(=O)C23CC(c4ncc(N5CC[C@@H](Oc6c(C)nc7nc(C)nn7c6C)C5)cn4)(C2)C3)C1 [Compound 25, (R)-(3-methoxyazetidin-1-yl)(3-(5-(3-((2,5,7-trimethyl-[1,2,4]triazolo[1,5-a]pyrimidin-6-yl)oxy)pyrrolidin-1-yl)pyrimidin-2-yl)bicyclo[1.1.1]pentan-1-yl)methanone] |
